Measured values: patent US9549556B2, “Macrocyclic picolinamides as fungicides” (DOW AGROSCIENCES LLC, priority 2013, dated 2017)
Where two headings read alike, the source gives them in different places.

Assays:
Puccinia triticina = test: Wheat brown rust (PUCCRT) disease control on wheat seedlings; type: in vivo; settings: read-out: PUCCRT disease control rating (% Control); for pest or weed control at 100 ppm: high volume application; for pest or weed control at 121.5 g/ha: 121.5 g/H, low volume (track spray) application
Septoria tritici = test: Leaf blotch of wheat (SEPTTR) disease control on wheat seedlings; type: in vivo, Mycosphaerella graminicola (anamorph Septoria tritici); settings: Zymoseptoria tritici, read-out: SEPTTR disease control rating (% Control); for pest or weed control at 100 ppm: high volume application; for pest or weed control at 121.5 g/ha: 121.5 g/H, low volume (track spray) application
Procedure: Evaluation of Fungicidal Activity: Leaf Blotch of Wheat (Mycosphaerella graminicola; Anamorph: Septoria tritici; Bayer Code […]) Technical grades of materials were dissolved in acetone, which were then mixed with nine volumes of water containing 110 ppm Triton X-100. The fungicide solutions were applied onto wheat seedlings using an automated booth sprayer to run-off. All sprayed plants were allowed to air dry prior to further handling. All fungicides were evaluated using the aforementioned method for their activity vs. all target diseases. Wheat leaf blotch and brown rust activity were also evaluated using track spray applications, in which case the fungicides were formulated as EC formulations, containing 0.1% Trycol 5941 in the spray solutions. Wheat plants (variety Yuma) were grown from seed in a greenhouse in 50% mineral soil/50% soil-less Metro mix until the first leaf was fully emerged, with 7-10 seedlings per pot. These plants were inoculated with an aqueous spore suspension of Septoria tritici either prior to or after fungicide treatments. After inoculation the plants were kept in 100% relative humidity (one day in a dark dew chamber followed by two to three days in a lighted dew chamber at 20° C.) to permit spores to germinate and infect the leaf. The plants were then transferred to a greenhouse set at 20° C. for disease to develop. When disease symptoms were fully expressed on the 1st leaves of untreated plants, infection levels were assessed on a scale of 0 to 100 percent disease severity. Percent disease control was calculated using the ratio of disease severity on treated plants relative to untreated plants.

Leptosphaeria nodorum = test: Wheat glume blotch (LEPTNO) disease control; type: in vivo; settings: 1 DP, 100 ppm
Uncinula necator = test: Grape powdery mildew (UNCINE) disease control; type: in vivo; settings: 1 DP, 100 ppm
Erysiphe cichoracearum = test: Powdery mildew of cucumber (ERYSCI) disease control; type: in vivo; settings: 1 DP, 100 ppm
Cercospora beticola = test: Leaf spot of sugar beets (CERCBE) disease control; type: in vivo; settings: 1 DP, 100 ppm, sugar beet
[1] = system: Blumeria graminis f. sp. hordei; test: Barley powdery mildew (ERYSGH) disease control; type: in vivo; settings: 1 DP, 100 ppm
Rhyncosporium secalis = test: Barley scald (RHYNSE) disease control; type: in vivo; settings: 1 DP, 100 ppm
Pyricularia oryzae = type: in vivo, Magnaporthe grisea (anamorph Pyricularia oryzae); settings: 1 DP, 100 ppm, rice
Alternaria solani = test: Tomato early blight (ALTESO) disease control; type: in vivo; settings: 1 DP, 100 ppm
[2] = system: Colletotrichum lagenarium; test: Cucumber anthracnose (COLLLA) disease control; type: in vivo, Glomerella lagenarium (anamorph Colletotrichum lagenarium); settings: 1 DP, 100 ppm

| Compound | melting point | pest or weed control at 100 ppm (Puccinia triticina; 24 h, 1DP (1 Day Protectant)) | pest or weed control at 100 ppm (Puccinia triticina; 72 h, 3DC (3 Day Curative)) | pest or weed control at 100 ppm (Septoria tritici; 24 h, 1DP (1 Day Protectant)) | pest or weed control at 100 ppm (Septoria tritici; 72 h, 3DC (3 Day Curative)) | pest or weed control at 121.5 g/ha (Puccinia triticina; 24 h, 1DP (1 Day Protectant)) | pest or weed control at 121.5 g/ha (Puccinia triticina; 72 h, 3DC (3 Day Curative)) | pest or weed control at 121.5 g/ha (Septoria tritici; 24 h, 1DP (1 Day Protectant)) | pest or weed control at 121.5 g/ha (Septoria tritici; 72 h, 3DC (3 Day Curative)) | further results |
| --- | --- | --- | --- | --- | --- | --- | --- | --- | --- | --- |
| COc1ccnc(C(=O)N[C@H]2COC[C@H](Oc3ccccc3)[C@@H](Cc3ccccc3)[C@H](C)OC2=O)c1O [Compound 77] | 49 to 54 °C | – | – | – | – | – | – | – | – | – |
| CC(C)CC[C@H]1[C@H](C)OC(=O)[C@@H](NC(=O)OC(C)(C)C)COC[C@@H]1OC(=O)C1CC1 [Compound 49, (3S,7R,8S,9S)-3-((tert-butoxycarbonyl)amino)-8-isopentyl-9-methyl-2-oxo-1,5-dioxonan-7-yl cyclopropanecarboxylate] | 92 to 95 °C | – | – | – | – | – | – | – | – | – |
| CCCO[C@H]1COC[C@H](NC(=O)c2nccc(OC)c2O)C(=O)O[C@@H](C)[C@@H]1CCC(C)C [Compound 53, 3-hydroxy-N-((3S,7R,8S,9S)-8-isopentyl-9-methyl-2-oxo-7-propoxy-1,5-dioxonan-3-yl)-4-methoxypicolinamide] | 54 to 57 °C | > 70% | > 70% | < 70% | < 70% | – | – | – | – | – |
| COc1ccnc(C(=O)N[C@H]2COC[C@H](OCC(C)C)[C@@H](Cc3ccccc3)[C@H](C)OC2=O)c1OC(C)=O [Compound 79] | 52 to 57 °C | – | – | – | – | > 70% | > 70% | > 70% | > 70% | – |
| COc1ccnc(C(=O)N[C@H]2COC[C@H](Oc3ccccc3)[C@@H](CCC(C)C)[C@H](C)OC2=O)c1O [Compound 60] | 58 to 62 °C | > 70% | > 70% | > 70% | < 70% | – | – | – | – | – |
| CC(C)CC[C@H]1[C@H](C)OC(=O)[C@@H](NC(=O)OC(C)(C)C)COC[C@@H]1O [Compound 66, tert-butyl ((3S,7R,8R,9S)-7-hydroxy-8-isopentyl-9-methyl-2-oxo-1,5-dioxonan-3-yl)carbamate] | 112 to 115 °C | – | – | – | – | – | – | – | – | – |
| CCCC[C@H]1[C@H](C)OC(=O)[C@@H](NC(=O)c2nccc(OC)c2OCOC(C)=O)COC[C@@H]1OCC1CC1 [Compound 6] | – | – | – | – | – | > 70% | > 70% | > 70% | > 70% | LEPTNO disease control rating (% Control) (Leptosphaeria nodorum): A (>70); UNCINE disease control rating (% Control) (Uncinula necator): A (>70); ERYSCI disease control rating (% Control) (Erysiphe cichoracearum): A (>70); CERCBE disease control rating (% Control) (Cercospora beticola): A (>70); ERYSGH disease control rating (% Control) [1]: A (>70); RHYNSE disease control rating (% Control) (Rhyncosporium secalis): A (>70); PYRIOR disease control rating (% Control) (Pyricularia oryzae): A (>70); ALTESO disease control rating (% Control) (Alternaria solani): B (≦70); COLLLA disease control rating (% Control) [2]: A (>70) |
| COc1ccnc(C(=O)N[C@H]2COC[C@H](OCC3CC3)[C@@H](Cc3ccccc3)[C@H](C)OC2=O)c1OC(C)=O [Compound 87] | 54 to 59 °C | > 70% | > 70% | > 70% | > 70% | – | – | – | – | – |
| CC(C)CC[C@H]1[C@H](C)OC(=O)[C@@H](NC(=O)OC(C)(C)C)COC[C@@H]1OCc1ccccc1 [Compound 42] | 70 to 72 °C | – | – | – | – | – | – | – | – | – |
| CCCO[C@H]1COC[C@H](NC(=O)OC(C)(C)C)C(=O)O[C@@H](C)[C@@H]1CCC(C)C [Compound 39, tert-butyl ((3S,7R,8S,9S)-8-isopentyl-9-methyl-2-oxo-7-propoxy-1,5-dioxonan-3-yl)carbamate] | 74 to 77 °C | – | – | – | – | – | – | – | – | – |
| COc1ccnc(C(=O)N[C@H]2COC[C@H](OCc3ccccc3)[C@@H](CCC(C)C)[C@H](C)OC2=O)c1OC(C)=O [Compound 67] | 55 to 61 °C | – | – | – | – | > 70% | > 70% | > 70% | > 70% | – |
| COc1ccnc(C(=O)N[C@H]2COC[C@H](Oc3ccccc3)[C@@H](CCC(C)C)[C@H](C)OC2=O)c1OCOC(C)=O [Compound 32] | 44 to 50 °C | – | – | – | – | > 70% | > 70% | > 70% | > 70% | – |
| COc1ccnc(C(=O)N[C@H]2COC[C@H](OCc3ccccc3)[C@@H](CCC(C)C)[C@H](C)OC2=O)c1O [Compound 46] | 104 to 106 °C | > 70% | > 70% | > 70% | < 70% | – | – | – | – | – |
| COc1ccnc(C(=O)N[C@H]2COC[C@H](OC(=O)C3CC3)[C@@H](CCC(C)C)[C@H](C)OC2=O)c1OCOC(C)=O [Compound 57] | 45 to 50 °C | – | – | – | – | > 70% | > 70% | < 70% | > 70% | – |
| CCCC[C@H]1[C@H](C)OC(=O)[C@@H](NC(=O)c2nccc(OC)c2O)COC[C@@H]1OCC1CC1 [Compound 3] | – | > 70% | > 70% | > 70% | < 70% | – | – | – | – | – |
| COc1ccnc(C(=O)N[C@H]2COC[C@H](OCOCc3ccccc3)[C@@H](Cc3ccccc3)[C@H](C)OC2=O)c1O [Compound 72, N-((3S,7R,8S,9S)-8-benzyl-7-((benzyloxy)methoxy)-9-methyl-2-oxo-1,5-dioxonan-3-yl)-3-hydroxy-4-methoxypicolinamide] | – | > 70% | < 70% | < 70% | < 70% | – | – | – | – | – |
| COc1ccnc(C(=O)N[C@H]2COC[C@H](Oc3ccccc3)[C@@H](Cc3ccccc3)[C@H](C)OC2=O)c1OC(C)=O [Compound 81] | – | – | – | – | – | > 70% | > 70% | > 70% | > 70% | – |
| CCCO[C@H]1COC[C@H](NC(=O)c2nccc(OC)c2OCOC(=O)COCC)C(=O)O[C@@H](C)[C@@H]1Cc1ccc(F)cc1 [Compound 8] | – | – | – | – | – | > 70% | > 70% | > 70% | > 70% | – |
| CCCC[C@H]1[C@H](C)OC(=O)[C@@H](NC(=O)c2nccc(OC)c2OCOC(C)=O)COC[C@@H]1OCc1ccccc1 [Compound 40] | – | – | – | – | – | > 70% | > 70% | > 70% | > 70% | – |
| CCCC[C@H]1[C@H](C)OC(=O)[C@@H](NC(=O)c2nccc(OC)c2OCOC(C)=O)COC[C@@H]1Oc1ccccc1 [Compound 44] | – | – | – | – | – | > 70% | > 70% | > 70% | > 70% | – |
| CCCC[C@H]1[C@H](C)OC(=O)[C@@H](NC(=O)c2nccc(OC)c2O)COC[C@@H]1OCCCC(F)(F)F [Compound 65] | – | > 70% | < 70% | > 70% | > 70% | – | – | – | – | – |
| CCCO[C@H]1COC[C@H](NC(=O)c2nccc(OC)c2OCOC(C)=O)C(=O)O[C@@H](C)[C@@H]1CCC(C)C [Compound 18, ((2-(((3S,7R,8S,9S)-8-isopentyl-9-methyl-2-oxo-7-propoxy-1,5-dioxonan-3-yl)carbamoyl)-4-methoxypyridin-3-yl)oxy)methyl acetate] | – | – | – | – | – | > 70% | > 70% | < 70% | > 70% | – |
